Assay results taken from patent publication US20220185811A1, “FGFR4 KINASE INHIBITOR AND PREPARATION METHOD THEREFOR AND USE THEREOF” (SHOUYAO HOLDINGS (BEIJING) CO., LTD., priority 2019, published 2022).
Like-named read-outs stand apart in the source and are kept apart here.

Tests used:
FGFR-4 kinase = FGFR-4 kinase (Homo sapiens, UniProt P22455); assay: FGFR-4 kinase activity, homogeneous time-resolved fluorescence (HTRF) method; format: biochemical; settings: ATP 25 μM, FGFR-4 kinase 1 nM, read-out: FGFR4 IC50
Sequence of FGFR-4 kinase (P22455 22-802): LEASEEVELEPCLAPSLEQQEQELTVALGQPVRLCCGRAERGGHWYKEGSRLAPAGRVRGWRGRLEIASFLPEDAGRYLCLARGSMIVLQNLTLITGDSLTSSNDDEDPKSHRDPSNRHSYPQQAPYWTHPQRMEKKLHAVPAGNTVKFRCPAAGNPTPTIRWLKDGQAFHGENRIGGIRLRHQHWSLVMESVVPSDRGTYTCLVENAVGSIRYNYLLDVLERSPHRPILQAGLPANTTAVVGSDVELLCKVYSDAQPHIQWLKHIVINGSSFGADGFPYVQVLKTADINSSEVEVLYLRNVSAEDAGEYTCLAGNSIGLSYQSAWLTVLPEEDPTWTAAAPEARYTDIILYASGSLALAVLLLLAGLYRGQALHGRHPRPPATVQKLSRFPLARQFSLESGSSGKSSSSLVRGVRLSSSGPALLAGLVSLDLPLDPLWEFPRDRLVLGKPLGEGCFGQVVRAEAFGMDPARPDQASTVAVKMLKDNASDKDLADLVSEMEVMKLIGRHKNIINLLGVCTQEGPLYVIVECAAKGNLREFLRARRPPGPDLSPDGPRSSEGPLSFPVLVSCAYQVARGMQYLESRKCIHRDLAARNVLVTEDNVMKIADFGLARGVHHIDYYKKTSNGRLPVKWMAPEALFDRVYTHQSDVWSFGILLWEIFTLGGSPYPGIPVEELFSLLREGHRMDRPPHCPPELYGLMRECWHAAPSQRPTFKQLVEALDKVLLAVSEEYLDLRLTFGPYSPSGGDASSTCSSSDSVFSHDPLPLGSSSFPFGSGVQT
Protocol: 1. In vitro determination of the protein activity of compounds: The FGFR-4 kinase activity detection platform was established by the homogeneous time-resolved fluorescence (HTRF) method, and the activity of the compound was determined. 1000 μM compounds were subjected to 3-fold gradient dilution in 100% DMSO 11 times (12 concentrations in total), 4 μL diluent from each concentration was added to 96 μL of reaction buffer (50 mM HEPES, pH 7.4, 5 mM MnCl2, 0.1 mM NaVO3, 0.001% Tween-20, 0.01% BAS, 1 mM DTT) and mixed well, as a 4* compound (final concentration of 0.017 nM-1000 nM) for later use. 2 * FGFR-4 kinase (final concentration of 1 nM) was formulated using reaction buffer and 4*substrate (ATP+TK peptide) (TK peptide, HTRF® KinEASETM-TK, purchased from Cisbio, TK peptide, final concentration of 1 μM, ATP final concentration of 25 μ M) was formulated using reaction buffer. 2.5 μL of 4*compound and then 5 μL of 2 * FGFR-4 kinase were added to a 384-well plate (OptiPlate-384, purchased from PerkinElmer), the mixture was mixed by centrifugation, and 2.5 μL of 4 * substrate mixture was added to start the reaction (total reaction volume of 10 µL). The 384-well plate was placed in an incubator 23° C. and stirred for 60 min before the reaction was stopped by the addition of 5 μL of Eu^3+cryptate-labeled anti-phosphotyrosine antibody (TRF® KinEASE™-TK, purchased from Cisbio) and 5 μL of Streptavidin-XL-665 (HTRF® KinEASE™-TK, purchased from Cisbio). After incubation in the incubator for 1 h, fluorescence values (excitation at 320 nm, detecting emitted light at 665 nm and 620 nm, and a ratio of the two as enzyme activity) were read on Envision (purchased from PerkinElmer). The enzyme activity of each compound was measured at 12 concentrations, and the ICso value of the compound was calculated using GraphPad Prism 5.0 software.
The FGFR-4 kinase activity detection platform was established by homogeneous time-resolved fluorescence (HTRF) method, and the activity of compound was determined. 1000 μM compounds were subjected to 3-fold gradient dilution in 100% DMSO 11 times (12 concentrations in total), 4 μL of diluent from each concentration was added to 96 μL of reaction buffer (50 mM HEPES, pH 7.4, 5 mM MnCl2, 0.1 mM NaVO3, 0.001% Tween-20, 0.01% BAS, 1 mM DTT) and mixed well, as a 4* compound (final concentration of 0.017 nM-1000 nM) for later use. 2 * FGFR-4 kinase (final concentration of 1 nM) was formulated using reaction buffer and 4*substrate (ATP+TK peptide)(TK peptide, HTRF® KinEASE™-TK, purchased from Cisbio, TK peptide, final concentration of 1 μM, ATP final concentration of 25 μM) was formulated using reaction buffer. 2.5 μL of 4 * compound and then 5 μL of 2 * FGFR-4 kinase were added to a 384-well plate (OptiPlate-384, purchased from PerkinElmer), the mixture was mixed by centrifugation, and 2.5 μL of 4 * substrate mixture was added to start the reaction (total reaction volume of 10 μL). The 384-well plate was placed in an incubator 23° C. and stirred for 60 min before the reaction was stopped by the addition of 5 μL of Eu^3+cryptate-labled anti-phosphotyrosine antibody (TRF® KinEASE™-TK, purchased from Cisbio) and 5 μL of Streptavidin-XL-665 (HTRF® KinEASE™-TK, purchased from Cisbio). After incubation in the incubator for 1 h, fluorescence values (excitation at 320 nm, detecting emitted light at 665 nm and 620 nm, and a ratio of the two as enzyme activity) were read on Envision (purchased from PerkinElmer). The enzyme activity of each compopund was measured at 12 concentrations, and the ICso value of the compound was calculated using GraphPad prism 5.0 software.

[1] = system: Human hepatoma cells Hep3b; assay: Cell proliferation inhibition, Cell Titer-Glo; format: cell-based; settings: Hep3B, 72 h
Protocol: 2. Determination of cell proliferation activity of compounds:
Cell Titer-Glo ® detection reagent from Promega was used to establish the suspension cell proliferation inhibition screening method. Human hepatoma cells Hep3b (Xiehe Cell Research Center) were cultured in 25 cm^2 or 75 cm^2 plastic tissue culture flasks (Corning®) filled with MEM (Gibco®) medium supplemented with 10% fetal bovine serum (Hyclone®) under 37° C., 95% air and 5% CO2, and subcultured 2-3 times a week.
(§1) Hep3b cells were seeded in a 96-well cell culture plate (Corning®) at a density of 3×10^3 cells/well, […], and cultured under 37° C., 95% air, and 5% CO2. After 24 h the test compound was added: 10 mM compounds (dissolved in DMSO) were subjected to 3-fold gradient dilution in DMSO , […] of diluent from each concentration was added to […] of serum-free medium, and finally […] of compound diluted in the medium was added to the plate seeded with cells. The final concentration of DMSO in the cell culture medium was 0.1% and the final concentration of the test compound was 0.3 nM-[…]. The above cells were incubated for 3 days under 37° C.
After 3 days, the cell viability assay was performed by the Cell Titer-Glo (Promega) kit, and finally, the inhibitory concentration 50% of the compound on cell proliferation, i.e. the IC 50 value, was calculated by the GraphPad Prism 5.0 program.
as §1, with “DMSO,” for “DMSO ,”, “finally,” for “finally”, “of” for “of the”
After 3 days, the cell viability assay was performed by the Cell Titer-Glo (Promega) kit, and finally the inhibitory concentration 50% of the compound on cell proliferation, i.e. the IC 50 value, was calculated by the GraphPad Prism 5.0 program.

[2] = Pharmacokinetics in male SD rats, single intragastric administration; format: in vivo; settings: rat, po, 5 mg/kg suspension, plasma, first PK table
Protocol: (§2) Male SD rats (Beijing Vital River Laboratory Animal Technology Co., Ltd.) were divided into groups of 3 rats each. The rats were subjected to 5 mg/kg suspension of the test sample by single intragastric administration, respectively. Animals were fasted overnight prior to the experiment from 10 h before dosing to 4 h after dosing. Blood was collected 0.25, 0.5, 1, 2, 4, 6, 8, and 24 h after administration. After isoflurane anesthesia using a small animal anesthesia machine, 0.3 mL of whole blood samples was collected from the fundus venous plexus, placed in a heparin anticoagulant tube, and were centrifuged at 4° C., 4000 rpm for 5 min, plasma was transferred to the centrifuge tube, and stored at −80° C. until analysis. Samples in the plasma were extracted using protein precipitation and the extracts were analyzed by LC/MS/MS.
as §2, with “taken through” for “collected from”, “-80°” for “−80°”

IC50 (FGFR-4 kinase; Table 1) [nM]	IC50 ([1]; Table 1, 3 days incubation) [nM]	SMILES	further results
0.947	46.3	CC#CC(=O)Nc1cc(-c2cc3c(cn2)cc(-c2c(Cl)c(OC)cc(OC)c2Cl)c2nccn23)c(OC)cc1N1CCS(=O)(=O)CC1 [Example 30, N-(5-(4-(2,6-dichloro-3,5-dimethoxyphenyl)imidazo[1,2-a][1,6]naphthyridin-8-yl)-2-(1,1-dioxidothiomorpholino)-4-methoxyphenyl)but-2-ynamide]	
5.03	113	C=CC(=O)Nc1cc(-c2cc3c(cn2)cc(-c2c(Cl)c(OC)cc(OC)c2Cl)c2nccn23)c(OC)cc1N1CC2CCC(C1)O2 [Example 44, N-(2-(8-oxa-3-azabicyclo[3 .2.1]octan-3-yl)-5-(4-(2,6-dichloro-3,5-dimethoxyphenyl)imidazo[1,2-a][1,6]naphthyridin-8-yl)-4-methoxyphenyl)acrylamide]	
5.07		C=CC(=O)Nc1cc(-c2cc3c(cn2)cc(-c2c(Cl)c(OC)cc(OC)c2Cl)c2nccn23)c(OC)cc1N1CCO[C@@H](C)C1 [Example 38, (S)-N-(5-(4-(2,6-dichloro-3,5-dimethoxyphenyl)imidazo[1,2-a][1,6]naphthyridin-8-yl)-4-methoxy-2-(2-methylmorpholino)phenyl)acrylamide]	
3.82	68.3	C=CC(=O)Nc1cc(-c2cc3c(cn2)cc(-c2c(Cl)c(OC)cc(OC)c2Cl)c2nccn23)c(OC)cc1N1CCN(C(C)=O)C2(CC2)C1 [Example 11, N-(2-(4-acetyl-4,7-diazaspiro[2.5]octan-7-yl)-5-(4-(2,6-dichloro-3,5-dimethoxyphenyl)imidazo[1,2-a][1,6]naphthyridin-8-yl)-4-methoxyphenyl)acrylamide]	
		C=CC(=O)Nc1cc(-c2cc3c(cn2)cc(-c2c(Cl)c(OC)cc(OC)c2Cl)c2nccn23)c(OC)cc1N1CCN(C2COC2)CC1 [Example 65, N-(5-(4-(2,6-dichloro-3,5-dimethoxyphenyl)imidazo[1,2-a][1,6]naphthyridin-8-yl)-4-methoxy-2-(4-(oxetan-3-yl)piperazin-1-yl)phenyl)acrylamide]	IC50 (FGFR-4 kinase; Table 2): 0.9 nM; IC50 ([1]; Table 2, 3 days incubation): 22.3 nM
3.85	142	C=CC(=O)Nc1cc(-c2cc3c(cn2)cc(-c2c(Cl)c(OC)cc(OC)c2Cl)c2nccn23)c(OC)cc1N1CCN(C)C2(CC2)C1 [Example 23, N-(5-(4-(2,6-dichloro-3,5-dimethoxyphenyl)imidazo[1,2-a][1,6]naphthyridin-8-yl)-4-methoxy-2-(4-methyl-4,7-diazaspiro[2.5]octan-7-yl)phenyl)acrylamide]	
5.61		C=CC(=O)Nc1cc(-c2cc3c(cn2)cc(-c2c(Cl)c(OC)cc(OC)c2Cl)c2nccn23)c(OC)cc1N1CCC2(CCN(C)C2)C1 (stereo not shown) [Example 22]	
2.54		C=CC(=O)Nc1cc(-c2cc3c(cn2)cc(-c2c(Cl)c(OC)cc(OC)c2Cl)c2nccn23)c(OC)cc1N1CCC2(COC2)C1 [Example 20, N-(5-(4-(2,6-dichloro-3,5-dimethoxyphenyl)imidazo[1,2-a][1,6]naphthyridin-8-yl)-4-methoxy-2-(2-oxa-6-azaspiro[3.4]octan-6-yl)phenyl)acrylamide]	
		CC#CC(=O)Nc1cc(-c2cc3c(cn2)cc(-c2c(Cl)c(OC)cc(OC)c2Cl)c2nccn23)c(OC)cc1N1C[C@@H]2C[C@H]1CO2 [Example 27, N-(2-((1S,4S)-2-oxa-5-azabicyclo[2.2.1]heptan-5-yl)-5-(4-(2,6-dichloro-3,5-dimethoxyphenyl)imidazo[1,2-a][1,6]naphthyridin-8-yl)-4-methoxyphenyl)but-2-ynamide]	AUC(0-inf) [2]: 1860 ng·h/mL; Cmax [2]: 452 ng/mL; Tmax [2]: 3.33 h; half-life ([2]; read-out: T1/2 (converted)): 2.73 h
	20.3	C=CC(=O)Nc1cc(-c2cc3c(cn2)cc(-c2c(Cl)c(OC)cc(OC)c2Cl)c2nccn23)c(OC)cc1N1CCOC2(CC2)C1 [Example 5, N-(5-(4-(2,6-dichloro-3,5-dimethoxyphenyl)imidazo[1,2-a][1,6]naphthyridin-8-yl)-4-methoxy-2-(4-oxa-7-azaspiro[2.5]octan-7-yl)phenyl)acrylamide]	
2.25		C=CC(=O)Nc1cc(-c2cc3c(cn2)cc(-c2c(Cl)c(OC)cc(OC)c2Cl)c2nccn23)c(OC)cc1N1CC2COCC2C1 (stereo not shown) [Example 4, N-(5-(4-(2,6-dichloro-3,5-dimethoxyphenyl)imidazo[1,2-a][1,6]naphthyridin-8-yl)-4-methoxy-2-(tetrahydro-1H-furo[3,4-c]pyrrol-5(3H)-yl)phenyl)acrylamide]	
